Reference: US8686023B2, “Salts of sunitinib” (Lek Pharmaceuticals D.D., priority 2008, dated 2014)

With sunitinib L-malate the “Solubility of sunitinib salts in water at 25° C.” value was 2000 µg/mL.
